Measured values reported in patent US9765109B2, “2′-arabino-fluorooligonucleotide N3′→P5′ phosphoramidates: their synthesis and use” (Geron Corporation, priority 2000, dated 2017).

Legend:
[1] = system: natural phosphodiester ssDNA; experiment: Thermal denaturation (Tm) of duplexes with complementary DNA; type: binding; conditions: for Tm, DNA: duplex
Procedure: (§1) ^31P NMR spectra were obtained on a Varian 400 MHz spectrometer. ^31P NMR spectra were referenced against 85% aqueous phosphoric acid. Anion exchange HPLC was performed using a Dionex DX 500 Chromatography System, with a Pharmacia Biotech Mono Q HR 5/5 or 10/16 ion exchange columns. Ion exchange HPLC was performed on the Dionex DX 500 system, using a Pharmacia Mono Q HR 5/5 column. Buffer A and B were: 10 mM NaOH, pH12 and 10 mM NaOH, 1.5 M NaCl, pH12, respectively. Oligonucleotides were eluted using a 1.5%/min. linear gradient of buffer B in A; flow 0.5 mL/min. Mass spectral analysis was performed by Mass Consortium, San Diego, Calif. MALDI-TOF analysis of oligonucleotides was obtained using a PerSpective Biosystems Voyager Elite mass spectrometer with delayed extraction. Thermal dissociation experiments were conducted on a Cary Bio 100 UV-Vis spectrometer.
(§2) ^ad, r, and a correspond to the 2′-deoxy, 2′-ribo-fluoro and to 2′-arabino-fluoronucleosides respectively; p and n correspond to the internucleoside phosphodiester and N3′→P5′ phosphoramidate linkages, respectively; ^bmelting temperature, Tm (±0.5° C.), of the duplexes formed with natural phosphodiester ssDNA or RNA strands, or: ^etriplexes formed with dA/dT duplex part of d(A10C4T10) hairpin. Buffers: ^c150 mM NaCl, 10 mM sodium phosphate buffer pit 7.4—first number, or in: ^dthe same buffer containing an additional 10 mM magnesium chloride—second number; n.o or n.d—the melting transitions and Tm's were not observed or not determined, respectively.
(§3) The ability of N3′→P5′ phosphoramidate 2′-arabino-fluorooligonucleotides to form complexes with complementary DNA and RNA strands was examined and compared with related oligonucleotide analogues using thermal denaturation experiments. […] (compare experiments 1 and 2, Table 1). […] Substitution of 2′-deoxy-3′-aminonucleosides by 2′-arabino-fluoro-3′-amino counterparts stabilized duplexes, by about 2-7° C., with DNA and RNA in a low ionic strength buffer. […] (compare experiments 3 and 6, Table 1).

[2] = Acid stability, half-life at pH 3; type: physicochemical
Procedure: (§4) It was reported that the 2′-ribo-fluoropyrimidine containing oligonucleotides with N3′→P5′ phosphoramidate or with phosphodiester internucleoside linkages are somewhat labile during treatment with aqueous ammonia at 55° C. (Schultz et al., Nucl. Acids Res., 24:2966-2973, 1996; Krug et al., Nucleosides Nucleotides, 8:1473-1483, 1989). Under these basic conditions pyrimidine-O2 mediated elimination of the 2′-fluorine atom takes place, resulting in formation of 2,3′-O-anhydronucleosides and multiple products of their consequent reactions with aqueous ammonia, including 2′-arabino-hydroxyl nucleosides (Krug et al., Nucleosides Nucleotides, 8:1473-1483, 1989). In contrast, the prepared 2′-arabino-fluoro phosphoramidate oligonucleotides were stable under these conditions.

[3] = Stability in concentrated aqueous ammonia, judged by IE HPLC; type: physicochemical; conditions: 24 hours, 55° C., IE HPLC analysis
Procedure: as §4

[4] = system: dA/dT duplex part of d(A10C4T10) hairpin; experiment: Thermal denaturation (Tm) of triplexes with dsDNA; type: binding; conditions: for Tm, dsDNA: triplex
Procedure: as §1
as §2, with “respectively. […]” for “respectively.”

[5] = system: natural phosphodiester RNA strand; experiment: Thermal denaturation (Tm) of duplexes with complementary RNA; type: binding; conditions: for Tm, RNA: duplex; for Tm difference of duplex with RNA: relative to 2′-deoxy phosphodiester oligonucleotide (experiment 1)
Procedure: as §1, §2, §3

[6] = 150 mM NaCl, 10 mM sodium phosphate buffer (first number)
[7] = same buffer with additional 10 mM magnesium chloride (second number)
[8] = single value given, buffer not stated

Row | Substance | Tm, DNA [1, 6] | Tm, DNA [1, 7] [°C] | Base and acid stability (summary statement) [2] | Stability on exposure to concentrated aqueous ammonia [3] | Tm, dsDNA [4, 6] | Tm, dsDNA [4, 7] | Relative stability of triplex with dsDNA ([4]; versus SEQ ID NO:6 and SEQ ID NOs:3-5, but not SEQ ID NO:7) | Tm, RNA [5, 6] | Tm, RNA [5, 7] | Tm, RNA [5, 8] [°C] | Tm difference of complexes with both DNA and RNA strands ([5]; most stable complexes, compare experiments 5, 6 and 7) | Tm difference of duplex with RNA [5] | Tm difference of complex with DNA (destabilization) ([1]; relative to 2′-deoxy phosphodiester oligonucleotide (experiments 1 and 2)) | Effect of increasing buffer ionic strength on Tm of duplex with RNA [5] | Tm difference of duplexes ([5]; relative to 2′-arabino-fluoro phosphodiester SEQ ID NO:5 (experiments 3 and 6), DNA and RNA)
1 | dT-a(Un^fUn^fUn^fUn^fUn^fUn^fUn^fUn^f Un^f) (TUUUUUUUUU; 2′-arabino-fluoro phosphoramidate; 5′ dT; contains 2 prime-deoxy and 2 prime-arabino- fluoronucleosides; test compounds) [SEQ ID NO:8, 2′-arabino-fluoro N3′→P5′ phosphoramidate decanucleotide] | 25.7 °C | 37.0 | base and acid stable | practically intact | 22.0 °C | 31.2 °C | more stable triplex | 40.0; 40.0 °C | 40.0; 40.0 °C |  |  |  |  |  | 
2 | a(Cn^fUn^fCn^fUn^fCn^fUn^fGnCn^fCn^f) (CUCUCUGCC; 2'-arabino-fluoro phosphoramidate backbone; contains 2 prime-arabino-fluoronucleosides; test compounds) [SEQ ID NO:10, mixed base 2′-arabino-fluoro phosphoramidate oligonucleotide] |  |  |  |  |  |  |  |  |  | 66.8 |  |  |  |  | 
3 | d(CnUnCnUnCnUnGnCnCn) (CUCUCUGCC; DNA, backbone, methylation of C and T or U not given here; phosphoramidate linkages) [SEQ ID NO:9, mixed base 2′-deoxy phosphoramidate oligonucleotide] |  |  |  |  |  |  |  |  |  | 66.7 |  |  |  |  | 
4 | d(UpUpUpUpUpUpUpUpUpT) (UUUUUUUUUT; contains 2 prime-deoxy nucleosides; test compounds) [SEQ ID NO:3, 2′-deoxy phosphodiester oligonucleotide] | 16.7 °C | 24.6 |  |  | n.o;^c n.o^d | n.o;^c n.o^d |  | 17.9 °C | 20.3 °C |  |  |  |  |  | 
5 | dT-r(Un^fUn^fUn^fUn^fUn^fUn^fUn^fUn^f Un^f) (TUUUUUUUUU; 2′-ribo-fluoro phosphoramidate; 5′ dT; contains 2 prime-deoxy and 2 prime-ribo- fluoronucleotides; test compounds) [SEQ ID NO:7, 2′-ribo-fluoro N3′→P5′ phosphoramidate oligonucleotide] | 37.4 °C | 56.3 |  | converted into a very complex mixture of products | 42.2 °C | 54.1 °C |  | 55.5 °C | 61.9 °C |  | 14-21 °C |  |  |  | 
6 | a(Up^fUp^fUp^fUp^fUp^fUp^fUp^fUp^fUp^fT) [SEQ ID NO:5] | 17.0 °C | 25.0 |  |  | < 14 °C | 20.9 °C |  | 27.5 °C | 28.6 °C |  |  | 8.3-9.6 °C |  |  | 
7 | r(Up^fUp^fUp^fUp^fUp^fUp^fUp^fUp^fUp^fT) (UUUUUUUUUT; 2′-ribo-fluoro; contains 2 prime-ribo-fluoronucleosides; test compounds) [SEQ ID NO:4, 2′-ribo-fluoro phosphodiester decanucleotide] | n.o | 18.0 |  |  | n.o; n.o | n.o; n.o |  | 32.9 °C | 36.6 °C |  |  | 15.0-16.3 °C | −6.7-16 °C |  | 
8 | d(UnUnUnUnUnUnUnUnUnT) (UUUUUUUUUT; N3′→P5′ phosphoramidate; contains 2 prime-deoxy nucleosides; test compounds) [SEQ ID NO:6, 2′-deoxy N3′→P5′ phosphoramidate oligonucleotide] | 18.5 °C | 38.2 |  |  | <15; n.d ° C. |  |  | 38.1 °C | 47.2 °C |  |  |  |  | no effect | 8.7-12.5 °C
